Data on twelve compounds can be found in PubChem BioAssay (NCI).

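Protocol summary: plate cells (96-well), add compound at 5 concentrations, incubate 48 h, interpolate endpoints linearly. GI50 is the concentration that inhibits growth by half. TGI marks complete inhibition of growth.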

Holding throughout (test): DTP human tumour cell line panel, 48 h
Assay [1] relates to 786-0 renal.
The test system of assay [2] is T-47D breast.
Assay [3] has as its system SK-MEL-2 melanoma.
The test system of assay [4] is A549 NSCLC.
Assay [5] deals with NCI-H460 lung.
Assay [6] relates to SNB-75 CNS.
Assay [7] deals with A498 renal.
Assay [8] has as its system HCC-2998 colon.
The test system of assay [9] is BT-549 breast.
The test system of assay [10] is HT29 colon.
The subject of assay [11] is RXF 393 renal.

As for `O=C(/C(=C/c1cccs1)c1ccccc1)c1ccccc1`, the TGI in assay [1], in assay [2], in [3], in [4], in assay [5] and in assay [6] was greater than 100 µM each time. Further, the TGI in assay [7] was greater than 100 µM; in assay [8], greater than 100 µM; in assay [9], greater than 100 µM; in assay [10] it was greater than 100 µM; in assay [11] it was 18.8 µM.
On to `O=C(O)c1cc(Sc2ccc([N+](=O)[O-])c(C(=O)O)c2)ccc1[N+](=O)[O-]`, for which the concentration for total growth inhibition (TGI) in assay [1], in assay [2], in assay [3], in [4], in [5] and in assay [6] was greater than 100 µM throughout. Further, the TGI in assay [7], in assay [8], in assay [9], in [10] and in assay [11] was greater than 100 µM in each case. Moreover, the GI50 in assay [6] and in assay [8] was greater than 100 µM throughout.
In the case of `O=C(N/C(=C\c1ccccc1)C1Nc2ccccc2C(=O)O1)c1ccccc1` (stereo not drawn), the TGI was 59 µM in assay [1]; greater than 100 µM in [2]; 62 µM in assay [3]; greater than 100 µM in assay [4]; 35.5 µM in assay [5]; greater than 100 µM in assay [6]. The TGI in assay [7] was greater than 100 µM; in [8] it was 38.6 µM; in assay [9], 62.2 µM; in [10] it was greater than 100 µM; in assay [11] it was 63 µM.
Take `CC1(C)C2CCC1(CC(=O)O)C(Cl)C2` (stereo not drawn): the TGI in [1], in [2], in assay [3], in assay [4], in [5] and in assay [6] was greater than 100 µM each time. The TGI in assay [7], in [8], in assay [9], in [10] and in assay [11] was greater than 100 µM each time.
`CN(C)/C=N/S(=O)(=O)c1nn2c(C=O)c(-c3ccc(-c4ccc([N+](=O)[O-])cc4)o3)nc2s1`: the TGI in assay [1] is 2.47 µM; in [2], greater than 44.6 µM; in assay [3], 25.9 µM; in [4], greater than 32.8 µM; in [5], 8.42 µM; in assay [6], 36.6 µM. Besides, the TGI in [7] turned out to be 54.2 µM; in [8] it was 14.7 µM; in assay [9], 8.05 µM; in [10], 2.19 µM; in [11], 5.04 µM.
For `CC(NC(=O)C(N)CC(=O)O)NC(=O)N1CCCC1` (stereo not drawn), the TGI in [1], in [2], in assay [3], in [4], in [5] and in [6] was greater than 100 µM in each case. Moreover, the TGI in assay [7], in assay [8], in assay [9], in [10] and in assay [11] was greater than 100 µM each time.
`CCc1n[nH]c(=O)n1NC(=O)/C=C\C(=O)O`: the TGI in assay [1], in assay [2], in assay [3], in assay [4], in assay [5] and in assay [6] was greater than 100 µM throughout. Besides, the concentration for total growth inhibition (TGI) in assay [7], in assay [8], in [9], in assay [10] and in [11] was greater than 100 µM each time.
`CCCCCCCCCCCCP(=O)(O)OCC(N)C(=O)O` (stereo not drawn): the TGI was greater than 100 µM in assay [1]; greater than 100 µM in assay [2]; 91.9 µM in assay [3]; greater than 100 µM in assay [4]; 89.6 µM in [5]; 40.3 µM in [6]. In addition, the total growth inhibition concentration (TGI) in assay [7] is 70.6 µM; in assay [8], greater than 100 µM; in [9], greater than 100 µM; in assay [10], greater than 100 µM; in assay [11] it was greater than 100 µM.
In the case of `Cc1cc2[nH]c3c(C#N)c(-c4ccccc4)c(CN4CCOCC4)c(=O)n3c2cc1C`, the TGI in assay [1], in assay [2], in assay [3], in [4], in [5] and in assay [6] was greater than 100 µM in each case. Also, the TGI in assay [7], in assay [8], in assay [9] and in assay [11] was greater than 100 µM each time.
With `O=C(O)C(F)(OC(F)(F)C(F)(OC(F)(F)C(F)(F)C(F)(F)F)C(F)(F)F)C(F)(F)F` (stereo not drawn), the TGI in [1], in assay [2], in assay [3], in [4], in assay [5] and in assay [6] was greater than 100 µM throughout. The TGI in [7], in [8], in assay [9], in [10] and in [11] was greater than 100 µM in each case.
For the compound `CCOC1SC(SC)=NN1C(=O)C(OC(C)=O)C(OC(C)=O)C(OC(C)=O)C(OC(C)=O)C(=O)N1N=C(SC)SC1OCC` (stereo not drawn), the TGI in assay [1], in assay [2], in assay [3], in assay [4], in [5] and in assay [6] was greater than 100 µM each time. Besides, the TGI in assay [7], in [8], in assay [9], in [10] and in assay [11] was greater than 100 µM each time.
As for `O=C1O[C@H]2[C@@H]3OC(=O)c4cc(O)c(O)c(O)c4-c4c(cc(O)c(O)c4O)C(=O)OC[C@H]2O[C@@H](OC(=O)c2cc(O)c(O)c(O)c2)[C@@H]3OC(=O)c2cc(O)c(O)c3c2[C@@H]2C1=CC(=O)C(O)(O)C2(O)O3` (stereo partly drawn), the TGI in assay [1] was 39.8 µM; in assay [2], 90.7 µM; in [3], greater than 100 µM; in [4], greater than 100 µM; in assay [5] it was greater than 100 µM; in assay [6] it was 86.4 µM. For the same compound, the concentration for total growth inhibition (TGI) in assay [7] was greater than 100 µM; in assay [8], greater than 100 µM; in assay [9], greater than 100 µM; in [10] it was 34.2 µM; in assay [11] it was greater than 100 µM.
